ChEMBL document CHEMBL1201862, “PubChem BioAssay data set” (2004)
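Each compound was tested at five concentrations against cells in 96-well plates for 48 hours. The concentration for 50% growth inhibition is given as GI50.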 Activity calls are given as the source filed them. Cut-off read from the data, not from the text of the source: active = GI50 up to about 1.1 µM and inactive = higher.

Tests used:
Assay in all cases: inhibition of tumour cell growth, NCI panel, 48 h
[1] = test system: MCF7
[2] = test system: 786-0
[3] = test system: MDA-N
[4] = test system: A549
[5] = test system: HOP-62
[6] = test system: OVCAR-5
[7] = test system: KM12
[8] = test system: HT-29
[9] = test system: TK-10
[10] = test system: OVCAR-3
[11] = test system: SW-620
[12] = test system: SK-MEL-5
[13] = test system: UACC-257
[14] = test system: T47D
[15] = test system: SF-268
[16] = test system: NCI/ADR-RES
[17] = test system: UO-31
[18] = test system: HCT-116
[19] = test system: DU-145
[20] = test system: SNB-19
[21] = test system: SN12C
[22] = test system: M14
[23] = test system: HCC 2998
[24] = test system: NCI-H460
[25] = test system: LOX IMVI
[26] = test system: SNB-75
[27] = test system: MDA-MB-435
[28] = test system: COLO 205
[29] = test system: Hs-578T
[30] = test system: SF-539
[31] = test system: IGROV-1
[32] = test system: MOLT-4
[33] = test system: CCRF-CEM
[34] = test system: SF-295
[35] = test system: EKVX
[36] = test system: ACHN
[37] = test system: NCI-H23
[38] = test system: SK-MEL-28
[39] = test system: NCI-H522
[40] = test system: SK-MEL-2
[41] = test system: SR
[42] = test system: PC-3
[43] = test system: HCT-15
[44] = test system: K562
[45] = test system: RPMI-8226
[46] = test system: UACC-62
[47] = test system: OVCAR-8
[48] = test system: RXF 393
[49] = test system: MDA-MB-231
[50] = test system: NCI-H226
[51] = test system: Malme-3M
[52] = test system: OVCAR-4
[53] = test system: HOP-92
[54] = test system: SK-OV-3
[55] = test system: HL-60
[56] = test system: A498
[57] = test system: U-251

SMILES: CC1C(c2cc(C(C)(C)C)c(O)c(C(C)(C)C)c2)c2cc3c(cc2OC1N1CCOCC1)OCO3 (configuration not stated)
- GI50 [1]: 21.2 µM (inactive)
- GI50 [2]: 13.7 µM (inactive)
- GI50 [3]: 26.9 µM (inactive)
- GI50 [4]: 16.6 µM (inactive)
- GI50 [5]: 16.9 µM (inactive)
- GI50 [6]: > 100 µM (inactive)
- GI50 [7]: 43.9 µM (inactive)
- GI50 [8]: 19.2 µM (inactive)
- GI50 [9]: 15.5 µM (inactive)
- GI50 [10]: 15.8 µM (inactive)
- GI50 [11]: 42.2 µM (inactive)
- GI50 [12]: 17.1 µM (inactive)
- GI50 [13]: 34.6 µM (inactive)
- GI50 [14]: 21.4 µM (inactive)
- GI50 [15]: 17.4 µM (inactive)
- GI50 [16]: 27.4 µM (inactive)
- GI50 [17]: 12.4 µM (inactive)
- GI50 [18]: 13.7 µM (inactive)
- GI50 [19]: 30.1 µM (inactive)
- GI50 [20]: 15.7 µM (inactive)
- GI50 [21]: 33.8 µM (inactive)
- GI50 [22]: 17.5 µM (inactive)
- GI50 [23]: 12.9 µM (inactive)
- GI50 [24]: 21.6 µM (inactive)
- GI50 [25]: 20.3 µM (inactive)
- GI50 [26]: 4.34 µM (inactive)
- GI50 [27]: 24 µM (inactive)
- GI50 [28]: 71 µM (inactive)
- GI50 [29]: 3.13 µM (inactive)
- GI50 [30]: 12.9 µM (inactive)
- GI50 [31]: 36.2 µM (inactive)
- GI50 [32]: > 100 µM (inactive)
- GI50 [33]: > 100 µM (inactive)
- GI50 [34]: 15.3 µM (inactive)
- GI50 [35]: 23.9 µM (inactive)
- GI50 [36]: 7.69 µM (inactive)
- GI50 [37]: 28.1 µM (inactive)
- GI50 [38]: 15.6 µM (inactive)
- GI50 [39]: 21.2 µM (inactive)
- GI50 [40]: 23.7 µM (inactive)
- GI50 [41]: 64.7 µM (inactive)
- GI50 [42]: 14.2 µM (inactive)
- GI50 [43]: > 10 µM
- GI50 [44]: 27.1 µM (inactive)
- GI50 [45]: 26.9 µM (inactive)
- GI50 [46]: 26.4 µM (inactive)
- GI50 [47]: 19.1 µM (inactive)

SMILES: CCCNC(=S)N/N=C/c1cccc(C)n1
- GI50 [1]: 41.2 µM (inactive)
- GI50 [2]: 26 µM (inactive)
- GI50 [3]: 30.6 µM (inactive)
- GI50 [4]: 26.4 µM (inactive)
- GI50 [5]: 25.6 µM (inactive)
- GI50 [6]: 44.5 µM (inactive)
- GI50 [7]: > 100 µM (inactive)
- GI50 [8]: 18 µM (inactive)
- GI50 [9]: 65.8 µM (inactive)
- GI50 [10]: 2.91 µM (inactive)
- GI50 [12]: 31.7 µM (inactive)
- GI50 [13]: 33 µM (inactive)
- GI50 [14]: 3.43 µM (inactive)
- GI50 [16]: 31 µM (inactive)
- GI50 [17]: 17.2 µM (inactive)
- GI50 [18]: 7.18 µM (inactive)
- GI50 [21]: 29.2 µM (inactive)
- GI50 [48]: 28.1 µM (inactive)
- GI50 [22]: 12.3 µM (inactive)
- GI50 [23]: 19.5 µM (inactive)
- GI50 [49]: 33.7 µM (inactive)
- GI50 [25]: 16.6 µM (inactive)
- GI50 [27]: 36.8 µM (inactive)
- GI50 [50]: 19.8 µM (inactive)
- GI50 [28]: 3.94 µM (inactive)
- GI50 [29]: > 100 µM (inactive)
- GI50 [30]: 25.2 µM (inactive)
- GI50 [31]: 42.7 µM (inactive)
- GI50 [32]: 16.8 µM (inactive)
- GI50 [33]: 2.69 µM (inactive)
- GI50 [34]: 32.8 µM (inactive)
- GI50 [35]: 30.9 µM (inactive)
- GI50 [36]: 13.4 µM (inactive)
- GI50 [51]: 12.7 µM (inactive)
- GI50 [37]: 28.9 µM (inactive)
- GI50 [52]: 39.4 µM (inactive)
- GI50 [53]: 49 µM (inactive)
- GI50 [39]: 4.04 µM (inactive)
- GI50 [54]: 46 µM (inactive)
- GI50 [40]: 1.09 µM (active)
- GI50 [55]: 25.9 µM (inactive)
- GI50 [41]: 15 µM (inactive)
- GI50 [56]: 33 µM (inactive)
- GI50 [42]: 38.6 µM (inactive)
- GI50 [43]: 18.5 µM
- GI50 [57]: 21.9 µM (inactive)
- GI50 [44]: 31.7 µM (inactive)
- GI50 [45]: 24.3 µM (inactive)
- GI50 [46]: 20.8 µM (inactive)
- GI50 [47]: 28 µM (inactive)
